One may read the melting point as the temperature of the solid-liquid transition.

As for `NCCc1cccc(Cn2ccc(OCc3ccc(F)cc3F)c(Br)c2=O)c1.O=C(O)C(F)(F)F`, the melting point lay in the range of 70 to 74 °C.

`Cl.O=c1c(Br)c(OCc2ccccc2)ccn1CC1CCCNC1` (centres unmarked) came in with a melting point of 138.1 to 139.2 °C.

As for `NCc1cccc(Cn2ccc(OCc3ccc(F)cc3)c(Br)c2=O)c1.O=C(O)C(F)(F)F`, the melting point was in the range of 127 to 139 °C.

Compound `NCc1cccc(Cn2ccc(OCc3ccc(F)cc3F)c(Br)c2=O)c1.O=C(O)C(F)(F)F` yielded a melting point of 80 to 84 °C.

For the compound `O=C(O)C(F)(F)F.O=c1c(Cl)c(OCc2ccc(F)cc2F)ccn1Cc1cccc2cnccc12`, the melting point is 235 to 238 °C.

Turning to `Cc1ccc(Cn2ccc(OCc3ccccc3)c(Br)c2=O)cc1` [Example 2, 4-(benzyloxy)-3-bromo-1-(4-methylbenzyl)pyridin-2(1H)-one], the melting point is 150.4 to 151.2 °C.

As for `Br.Cn1ccc(OCc2ccccc2)c(Br)c1=O` [Example 22, 4-(benzyloxy)-3-bromo-1-methylpyridin-2(1H)-one Hydrobromide], the melting point lay in the range of 105.3 to 105.6 °C.

The compound `NC(=NO)c1ccc(Cn2ccc(OCc3ccccc3)c(Br)c2=O)cc1` [Example 24, 4-{[4-(benzyloxy)-3-bromo-2-oxopyridin-1(2H)-yl]methyl}-N′-hydroxybenzenecarboximidamide] came in with a melting point of 210.2 to 212.2 °C.

`Cl.O=c1c(Br)c(OCc2ccccc2)ccn1CC1CCNCC1` [Example 25, 4-(benzyloxy)-3-bromo-1-(piperidin-4-ylmethyl)pyridin-2(1H)-one Hydrochloride]: the melting point stood at 207.9 °C.

The compound `O=c1c(Br)c(OCc2ccccc2)ccn1CCc1ccsc1` [Example 29, 4-(benzyloxy)-3-bromo-1-(2-thien-3-ylethyl)pyridin-2(1H)-one] yielded a melting point of 134 to 134.3 °C.

`O=c1c(Br)c(OCc2ccccc2)ccn1CCc1cccs1` [Example 30, 4-(benzyloxy)-3-bromo-1-(2-thien-2-ylethyl)pyridin-2(1H)-one] gave a melting point of 128 to 129.5 °C.

On to `O=c1cc(OCc2c(Cl)cccc2Cl)ccn1Cc1ccccc1` [Example 40, 1-benzyl-4-[2,6-(dichlorobenzyl)oxy]pyridin-2(1H)-one], for which the melting point lay in the range of 151.6 to 152 °C.

`O=c1cc(OCc2ccccc2Cl)ccn1Cc1ccccc1` [Example 42, 1-benzyl-4-[(2-chlorobenzyl)oxy]pyridin-2(1H)-one] registered a melting point of 124.6 to 125 °C.

`O=c1c(Br)c(OCc2ccccc2Cl)ccn1Cc1ccccc1` [Example 43, 1-benzyl-3-bromo-4-[(2-chlorobenzyl)oxy]pyridin-2(1H)-one]: the melting point lay within 143.3 to 145.5 °C.

The compound `Cc1ccc(COc2ccn(Cc3ccccc3)c(=O)c2Br)cc1` [Example 44, 1-benzyl-3-bromo-4-[(4-methylbenzyl)oxy]pyridin-2(1H)-one] came in with a melting point of 149 to 149.7 °C.

Compound `O=c1cc(OCc2cccc(Cl)c2)ccn1Cc1ccccc1` [Example 45, 1-benzyl-4-[(3-chlorobenzyl)oxy]pyridin-2(1H)-one] returned a melting point of 95.5 to 95.7 °C.

For `O=c1c(Br)c(SCc2ccccc2)ccn1Cc1ccccc1` [Example 46, 1-benzyl-4-[benzylthio]-3-bromopyridin-2(1H)-one], the melting point lay in the range of 180.6 to 182.1 °C.

Take `O=c1c(Br)c(OCc2ccccc2C(F)(F)F)ccn1Cc1ccccc1` [Example 47, 1-benzyl-3-bromo-4-{[2-(trifluoromethyl)benzyl]oxy}pyridin-2(1H)-one]: the melting point lay within 133.2 to 133.5 °C.

The compound `O=c1c(Br)c(OCc2ccc(F)cc2)ccn1CC1CC1` [Example 59, 3-bromo-1-cyclopropylmethyl-4-(4-fluorobenzyloxy)-1H-pyridin-2-one] displayed a melting point of 139 to 141 °C.

As to `CC(C)(C)OC(=O)NCc1cccc(Cn2ccc(OCc3ccc(F)cc3)c(Br)c2=O)c1` [Example 70, {3-[3-bromo-4-(4-fluorobenzyloxy)-2-oxo-2H-pyridin-1-ylmethyl]benzyl}carbamic Acid Tert-Butyl Ester], the melting point was in the range of 136 to 138 °C.
